Results published in the supplement of paper PMC10307832.

How the values were obtained:
Experiment in all cases: relative viability (nuclei count vs DMSO), 5 days (fraction); higher = more cells survive
[1] = test system: LK-2
Procedure, shortened: (§1)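 A single step with final 0.05% Triton X-100, 1% formaldehyde and 1 ug/ml Hoechst fixed the cells and stained nuclei 5 days after treatment. Lung cancer cell lines in 1536-well plates had been treated by pin tool the day after seeding with one drug alone or a fixed anchor-drug dose plus five library-drug doses (not always all listed) in √10 steps, and nuclei were counted on 4× images. Relative viability is the ratio of nuclei in treated wells to nuclei in vehicle wells, taken as the median of duplicate plates.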

[2] = test system: A-427
Procedure, shortened: as §1

[3] = test system: NCI-H23
Procedure, shortened: as §1

[4] = test system: PC-3 [JPC-3]
Procedure, shortened: as §1

[5] = test system: 201T
Procedure, shortened: as §1

[6] = test system: LU99A
Procedure, shortened: as §1

[7] = test system: RERF-LC-KJ
Procedure, shortened: as §1

[8] = test system: LCLC-97TM1
Procedure, shortened: as §1

[9] = test system: H3255
Procedure, shortened: as §1

[10] = test system: NCI-H1651
Procedure, shortened: as §1

[11] = test system: COR-L23
Procedure, shortened: as §1

[12] = test system: NCI-H1563
Procedure, shortened: as §1

[13] = test system: SW 1573
Procedure, shortened: as §1

[14] = test system: NCI-H1650
Procedure, shortened: as §1

[15] = test system: NCI-H1944
Procedure, shortened: as §1

[16] = test system: LCLC-103H
Procedure, shortened: as §1

[17] = test system: PC-14
Procedure, shortened: as §1

[18] = test system: NCI-H1793
Procedure, shortened: as §1

[19] = test system: NCI-H2347
Procedure, shortened: as §1

[20] = test system: SW 900
Procedure, shortened: as §1

[21] = test system: NCI-H650
Procedure, shortened: as §1

[22] = test system: NCI-H460
Procedure, shortened: as §1

[23] = test system: NCI-H727
Procedure, shortened: as §1

[24] = test system: NCI-H838
Procedure, shortened: as §1

C[C@@H]1CN(CC(=O)Nc2ccc3c(c2)Cc2cccc(-c4cc(=O)cc(N5CCOCC5)o4)c2S3)C[C@H](C)O1 + COc1cccc2cc(-c3nc([C@H]4CC[C@H](C(=O)O)CC4)n4ncnc(N)c34)[nH]c12 [OSI-027] (partner 0.5 µM)
relative viability ([1]; first compound 0.04 µM): 0.196 | relative viability ([1]; first compound 0.1265 µM): 0.207 | relative viability ([1]; first compound 0.4 µM): 0.162 | relative viability ([1]; first compound 4 µM): 0.257 | relative viability ([2]; first compound 0.04 µM): 0.501 | relative viability ([2]; first compound 0.1265 µM): 0.53 | relative viability ([2]; first compound 0.4 µM): 0.482 | relative viability ([2]; first compound 4 µM): 0.575 | relative viability ([3]; first compound 0.04 µM): 0.732 | relative viability ([3]; first compound 0.1265 µM): 0.572 | relative viability ([3]; first compound 0.4 µM): 0.558 | relative viability ([3]; first compound 4 µM): 0.426 | relative viability ([4]; first compound 0.04 µM): 0.81 | relative viability ([4]; first compound 0.1265 µM): 0.815 | relative viability ([4]; first compound 0.4 µM): 0.66 | relative viability ([4]; first compound 4 µM): 0.577 | relative viability ([5]; first compound 0.04 µM): 0.784 | relative viability ([5]; first compound 0.1265 µM): 0.68 | relative viability ([5]; first compound 0.4 µM): 0.683 | relative viability ([5]; first compound 4 µM): 0.757 | relative viability ([6]; first compound 0.04 µM): 0.282 | relative viability ([6]; first compound 0.1265 µM): 0.34 | relative viability ([6]; first compound 0.4 µM): 0.299 | relative viability ([6]; first compound 4 µM): 0.374 | relative viability ([7]; first compound 0.04 µM): 0.757 | relative viability ([7]; first compound 0.1265 µM): 0.583 | relative viability ([7]; first compound 0.4 µM): 0.534 | relative viability ([7]; first compound 4 µM): 0.49 | relative viability ([8]; first compound 0.04 µM): 0.45 | relative viability ([8]; first compound 0.1265 µM): 0.601 | relative viability ([8]; first compound 0.4 µM): 0.408 | relative viability ([8]; first compound 4 µM): 0.509 | relative viability ([9]; first compound 0.04 µM): 0.599 | relative viability ([9]; first compound 0.1265 µM): 0.624 | relative viability ([9]; first compound 0.4 µM): 0.48 | relative viability ([9]; first compound 4 µM): 0.491 | relative viability ([10]; first compound 0.04 µM): 0.694 | relative viability ([10]; first compound 0.1265 µM): 0.836 | relative viability ([10]; first compound 0.4 µM): 0.741 | relative viability ([10]; first compound 4 µM): 0.585 | relative viability ([11]; first compound 0.04 µM): 0.782 | relative viability ([11]; first compound 0.1265 µM): 0.776 | relative viability ([11]; first compound 0.4 µM): 0.73 | relative viability ([11]; first compound 4 µM): 0.717 | relative viability ([12]; first compound 0.04 µM): 0.765 | relative viability ([12]; first compound 0.1265 µM): 0.71 | relative viability ([12]; first compound 0.4 µM): 0.689 | relative viability ([12]; first compound 4 µM): 0.72 | relative viability ([13]; first compound 0.04 µM): 0.796 | relative viability ([13]; first compound 0.1265 µM): 0.72 | relative viability ([13]; first compound 0.4 µM): 0.465 | relative viability ([13]; first compound 4 µM): 0.604 | relative viability ([14]; first compound 0.04 µM): 0.761 | relative viability ([14]; first compound 0.1265 µM): 0.662 | relative viability ([14]; first compound 0.4 µM): 0.591 | relative viability ([14]; first compound 4 µM): 0.449 | relative viability ([15]; first compound 0.04 µM): 0.386 | relative viability ([15]; first compound 0.1265 µM): 0.475 | relative viability ([15]; first compound 0.4 µM): 0.389 | relative viability ([15]; first compound 4 µM): 0.336 | relative viability ([16]; first compound 0.04 µM): 0.405 | relative viability ([16]; first compound 0.1265 µM): 0.379 | relative viability ([16]; first compound 0.4 µM): 0.387 | relative viability ([16]; first compound 4 µM): 0.476 | relative viability ([17]; first compound 0.04 µM): 1.02 | relative viability ([17]; first compound 0.1265 µM): 0.761 | relative viability ([17]; first compound 0.4 µM): 0.744 | relative viability ([17]; first compound 4 µM): 0.653 | relative viability ([18]; first compound 0.04 µM): 0.256 | relative viability ([18]; first compound 0.1265 µM): 0.272 | relative viability ([18]; first compound 0.4 µM): 0.247 | relative viability ([18]; first compound 4 µM): 0.149 | relative viability ([19]; first compound 0.04 µM): 0.465 | relative viability ([19]; first compound 0.1265 µM): 0.417 | relative viability ([19]; first compound 0.4 µM): 0.415 | relative viability ([19]; first compound 4 µM): 0.4 | relative viability ([20]; first compound 0.04 µM): 0.455 | relative viability ([20]; first compound 0.1265 µM): 0.573 | relative viability ([20]; first compound 0.4 µM): 0.647 | relative viability ([20]; first compound 4 µM): 0.45 | relative viability ([21]; first compound 0.04 µM): 0.491 | relative viability ([21]; first compound 0.1265 µM): 0.443 | relative viability ([21]; first compound 0.4 µM): 0.51 | relative viability ([21]; first compound 4 µM): 0.36 | relative viability ([22]; first compound 0.04 µM): 0.662 | relative viability ([22]; first compound 0.1265 µM): 0.674 | relative viability ([22]; first compound 0.4 µM): 0.587 | relative viability ([22]; first compound 4 µM): 0.253 | relative viability ([23]; first compound 0.04 µM): 0.546 | relative viability ([23]; first compound 0.1265 µM): 0.485 | relative viability ([23]; first compound 0.4 µM): 0.537 | relative viability ([23]; first compound 4 µM): 0.656 | relative viability ([24]; first compound 0.04 µM): 0.401 | relative viability ([24]; first compound 0.1265 µM): 0.377 | relative viability ([24]; first compound 0.4 µM): 0.312 | relative viability ([24]; first compound 4 µM): 0.288
